The test system of assay [1] is TNF-α induced IL-8 in 50% human whole blood. The experiment in a line: Inhibition of TNF-α induced IL-8 in 50% human whole blood. Format: cell-based. Here is the method: Inhibition of TNF-α Induced IL-8 in 50% Human Whole Blood
Test compounds were evaluated in vitro for the ability to inhibit the production of secreted IL-8 by whole blood activated with TNF-α. Fresh human whole blood was obtained from healthy, non-medicated volunteers in sodium heparin tubes.
Compound Dilution—Assay Procedure
Test compounds are serially diluted 1:3 in DMSO and then diluted 1:250 into R10 (RPMI 1640, 10% human serum AB, 1× pen/strep/glutamine) to the 4× working concentration to be used in the assay. 100 ul heparinized whole blood is plated into wells of 96 well flat bottom plates. 50 ul of either 4× compound or DMSO control (Final DMSO concentration is 0.1%) are added to the appropriate wells. Plates are incubated for 1 hour at 37 degrees Celsius. 50 ul of 4×TNF-α (4 nM TNF-α, for a final concentration of 1 nM) or control (media alone) is added to the appropriate wells (Total volume=200 ul). Plates are incubated overnight (16-18 hours). 100 ul of supernatant is collected and stored in 96-well round bottom polypropylene plates at −80 degrees Celsius or assayed immediately for IL-8.
Cytokines are measured on antibody (Ab) sandwich ECL based 96-well detection plates. 20 ul of supernatant are added to plate and plate is sealed and shaken at RT for 1 hour. 130 ul of detection Ab cocktail is added and plates are sealed and shaken for 1 hour in the dark at RT. Plates are read on MSD Sector HTS instrument. Data are analyzed and IC50 values generated using Activity Base and X1-fit programs.

A further assay addresses recombinant human p38α (Homo sapiens, UniProt Q16539). The experiment in a line: Purified and activated recombinant human p38α HTRF assay. Format: biochemical. To be noted: 1 nM p38α, 50 μM ATP, GST-ATF2 substrate, read-out: p38a IC50. Here is the method:
Purified and Activated Recombinant Human p38α Assay Kinase Reaction Buffer: […] HTRF Detection Buffer: […] Serial Dilution of Compounds: […] Columns 6 and 12 (HI controls and LO controls respectively) in the drug plate were reserved as controls and contained only DMSO. Kinase Reaction: […] See table below for actual concentrations. In the absence of substrate, the background was measured as LO control. […] Assay Reagent Concentrations: […] HTRF Detection: […] After 60 minutes incubation at room temperature, the assay plate was read in a Discovery Plate Reader. The wells were excited with coherent 320 nm light and the ratio of delayed ([…] post excitation) emissions at […] (native europium fluorescence) and 665 nm (europium fluorescence transferred to allophycocyanin-an index of substrate phosphorylation) was determined (Park et al, 1999). Data Analysis: […] Data (consisting of POC and inhibitor concentration in μM) was fitted to a 4-parameter equation ([…]))), where A is the minimum y (POC) value, B is the maximum y (POC), C is the x (compound concentration) at the point of inflection and D is the slope factor, using a Levenburg-Marquardt non-linear regression algorithm. The inhibition constant (Ki) of the inhibitor was estimated from the IC50 (compound concentration at the point of inflection C) using the Cheng-Prussof equation: […] All results were expressed as the mean±the standard error of the mean. Data acquisition and non-linear regression algorithms were performed using Activity Base v5.2 and XL-fit software v4.1 respectively. All data was archived using Activity Base v5.2 software.
For orientation: Time-resolved FRET reads energy transfer from a long-lived donor to a nearby acceptor.

Assay [2] has as its system production of IL-1β, IL-6, and TNF-α by PBMC activated with LPS. The experiment in a line: Lipopolysaccharide-activated PBMC cytokine production assay. Format: cell-based. To be noted: Homo sapiens, LPS 100 ng/mL, 18 hours, read-out: IC50 in PBMC cytokine production assay. Here is the method: Lipopolysaccharide-Activated Pbmc Cytokine Production Assay
Test compounds were evaluated in vitro for the ability to inhibit the production of IL-1β, IL-6, and TNF-α by PBMC activated with bacterial lipopolysaccharide (LPS). Fresh leukocytes were obtained from a local blood bank, and peripheral blood mononuclear cells (PBMCs) were isolated by density gradient centrifugation on Ficol-Paque Plus (Pharmacia).
Preparation of Test Compound Stock Solutions
All reagents were prepared in RPMI 1640+10% v/v human AB serum+1× Pens/Strep/Glu (assay medium). Test compounds were dissolved in 100% DMSO and serially diluted in 96-well polypropylene round bottom micro titer plates (drug plate). Serial dilutions were then diluted 1:250 into assay medium to a 4× working concentration. Compound serial dilutions were half-log, 10 point titrations with a final starting concentration of 1 μM.
Treatment of Cells with Test Compounds and Activation with Lipopolysaccharide
LPS was prepared to a 4× concentration in assay medium. 100 μl of PBMC (1×10^6 cells/ml) were plated in a 96-well polystyrene flat bottom micro titer tissue culture plate and incubated with 50 μl of 4× compound serial dilution for 1 hour at 37° C., 5% CO2 in a tissue culture incubator. 50 μl 4×LPS or control was added and the plates were incubated at 37° C., 5% CO2 in a tissue culture incubator for 18 hours. The final DMSO concentration was 0.1%. The total volume was 200 μL. The final LPS concentration was 100 ng/mL. After 18 hours culture supernatants were removed and IL-1β, IL-6, and TNF-α presence in the supernatants was quantified using MSD ECL based technology.
20 μL of culture supernatant were added to MSD plates, and incubated for one hour at room temperature. 20 μL of detection antibody diluted in antibody diluent (1 μg/mL), and 110 μL of 2× Read Buffer P was added, and incubated for one hour at RT. Electrochemiluminescence was measured using the SECTOR HTS Imager (MSD, Gaithersburg, Md.).
Compound IC50 values were calculated as follows: The proportion of cytokine production in the presence of compound compared to the cytokine production in the presence of the DMSO vehicle alone (Hi control) was calculated using the formula: Percent Control (POC)=(compound−average Lo)/(average Hi−average Lo)*100.

Assay [3] concerns TNF-α production by LPS-activated THP1 cells. The experiment in a line: Lipopolysaccharide-activated THP1 cell TNF production assay. Format: cell-based. To be noted: Homo sapiens, THP-1; THP1 cells, LPS, 3 hours; read-out: IC50 in THP-1 cellular TNF production assay. Here is the method:
Lipopolysaccharide-Activated THP1 Cell TNF Production Assay
THP1 cells were resuspended in fresh THP1 media (RPMI 1640, 10% heat-inactivated FBS, 1×PGS, 1×NEAA, plus 30 μM βME) at a concentration of 1.5×10^6 cells per mL. One hundred microliters of cells per well were plated in a polystyrene 96-well tissue culture plate. 1.5 micrograms per mL of bacterial LPS was prepared in THP1 media and transferred to the first 11 columns of a 96-well polypropylene plate. Column 12 contained only THP1 media for the LO control. Compounds were dissolved in 100% DMSO and serially diluted 3 fold in a polypropylene 96-well microtiter plate (drug plate). Columns 6 and 12 were reserved as controls (HI controls and LO controls respectively) and contained only DMSO. 10 μL of LPS followed by one microliter of inhibitor compound from the drug plate was transferred to the cell plate. The treated cells were induced to synthesize and secrete TNF-α in a 37° C. humidified incubator with 5% CO2 for 3 hours. Fifty microliters of conditioned media was transferred to a 96-well MULTI-ARRAY™ 96-well small spot plate—custom coated with MAB610 containing 100 μL of 2× Read Buffer P supplemented with 0.34 nM AF210NA polyclonal Ab labeled with ruthenium (MSD—Sulfo-TAG™—NHS ester). After an overnight incubation at room temperature with shaking, the reaction was read on the Sector Imager™ 6000. […] The amount of secreted TNF-α in the presence of test compounds compared with that in the presence of DMSO vehicle alone (HI control) was calculated using the formula: % control (POC)=(cpd−average LO)/(average HI−averageLO)*100. Data (consisting of POC and inhibitor concentration in μM) was fitted to a 4-parameter equation (y=A+((B−A)/(1+((x/C)^D))), where A is the minimum y (POC) value, B is the maximum y (POC), C is the x (cpd concentration) at the point of inflection and D is the slope factor) using a Levenburg-Marquardt non-linear regression algorithm.

Where [4] appears, read: TNF-α (1 nM) induced IL-8, 50% human whole blood, 16-18 h, read-out: WB TNF/IL8 IC50.

Like-named read-outs stand apart in the source and are kept apart here.

Chain of recombinant human p38α (Q16539 whole entry): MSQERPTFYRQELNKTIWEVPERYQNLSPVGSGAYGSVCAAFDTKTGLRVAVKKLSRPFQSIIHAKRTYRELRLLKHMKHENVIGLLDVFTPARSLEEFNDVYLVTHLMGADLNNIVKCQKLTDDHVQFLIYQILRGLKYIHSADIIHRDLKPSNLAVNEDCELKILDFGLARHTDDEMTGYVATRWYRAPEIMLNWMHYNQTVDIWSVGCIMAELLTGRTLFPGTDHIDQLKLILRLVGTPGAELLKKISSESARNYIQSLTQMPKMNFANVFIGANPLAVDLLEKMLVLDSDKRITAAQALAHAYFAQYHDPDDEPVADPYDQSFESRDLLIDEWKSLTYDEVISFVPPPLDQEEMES

Turning to `Cn1c(=O)c(-c2cc(C(=O)O)ccc2Cl)cc2cnnc(-c3ccc(F)cc3F)c21` [Example 4, 4-chloro-3-(8-(2,4-difluorophenyl)-1-methyl-2-oxo-1,2-dihydropyrido[3,2-d]pyridazin-3-yl)benzoic acid], the IC50 in assay [1] (read-out: WB TNF/IL8 IC50, TNF-α (1 nM) induced IL-8, 50% human whole blood, 16-18 h) was > 2500 nM; on recombinant human p38α it was > 1000 nM.
`CCn1c(=O)c(-c2cc(C(=O)NC3CC3)cc(F)c2C)cc2cnnc(-c3ccc(F)cc3F)c21` [Example 22, N-cyclopropyl-3-(8-(2,4-difluorophenyl)-1-ethyl-2-oxo-1,2-dihydropyrido[2,3-d]pyridazin-3-yl)-5-fluoro-4-methylbenzamide]: the IC50 was ≤ 1000 nM in assay [2], ≤ 1000 nM in assay [3] and 1.3 nM at recombinant human p38α.
Consider `CCn1c(=O)c(-c2cc(C(=O)NC3CC3)ccc2C)cc2cnnc(-c3ccc(F)cc3F)c21` [Example 23, N-cyclopropyl-3-(8-(2,4-difluorophenyl)-1-ethyl-2-oxo-1,2-dihydropyrido[2,3-d]pyridazin-3-yl)-4-methylbenzamide], for which the IC50 was ≤ 1000 nM in assay [2], ≤ 1000 nM in assay [3] and 1.5 nM on recombinant human p38α.
As for `Cc1ccc(C(=O)Nc2ccon2)cc1-c1cc2cnnc(-c3ccccc3Cl)c2n(C)c1=O` [Example 25, 3-(8-(2-chlorophenyl)-1-methyl-2-oxo-1,2-dihydropyrido[2,3-d]pyridazin-3-yl)-N-3-isoxazolyl-4-methylbenzamide], the IC50 was ≤ 1000 nM in assay [2], ≤ 1000 nM in assay [3] and 0.9 nM on recombinant human p38α.
On to `Cc1ccc(C(=O)NC2CC2)cc1-c1cc2cnnc(-c3ccc(S(C)(=O)=O)cc3C)c2n(C)c1=O` [Example 26, N-cyclopropyl-4-methyl-3-(1-methyl-8-(2-methyl-4-(methylsulfonyl)phenyl)-2-oxo-1,2-dihydropyrido[2,3-d]pyridazin-3-yl)benzamide], for which the figures for the IC50 (in assay [1] (setting [4]); at recombinant human p38α) were 10 nM and 3.3 nM, respectively.
On the same counts, the results for `Cc1cc(S(C)(=O)=O)ccc1-c1nncc2cc(-c3cc(C(=O)NC4CC4)cc(F)c3C)c(=O)n(C)c12` [Example 27, N-cyclopropyl-3-fluoro-4-methyl-5-(1-methyl-8-(2-methyl-4-(methylsulfonyl)phenyl)-2-oxo-1,2-dihydropyrido[2,3-d]pyridazin-3-yl)benzamide] are 3.9 nM and 2.5 nM.
On the same counts, the results for `CCn1c(=O)c(-c2cc(C(=O)NC3CC3)ccc2C)cc2cnnc(-c3ccccc3Cl)c21` [Example 28, 3-(8-(2-chlorophenyl)-1-ethyl-2-oxo-1,2-dihydropyrido[2,3-d]pyridazin-3-yl)-N-cyclopropyl-4-methylbenzamide] are 1 nM and 1 nM.
Turning to `Cc1ccc(C(=O)NC2(C)CC2)cc1-c1cc2cnnc(-c3ccc(F)cc3F)c2n(C)c1=O` [Example 29, 3-(8-(2,4-difluorophenyl)-1-methyl-2-oxo-1,2-dihydropyrido[2,3-d]pyridazin-3-yl)-4-methyl-N-(1-methylcyclopropyl)benzamide], the IC50 in assay [2] was ≤ 1000 nM; in assay [3] it was ≤ 1000 nM; at recombinant human p38α it was 3 nM.
`Cc1cnc(C(=O)NC2CC2)cc1-c1cc2cnnc(-c3ccc(F)cc3F)c2n(C)c1=O` [Example 30, N-cyclopropyl-4-(8-(2,4-difluorophenyl)-1-methyl-2-oxo-1,2-dihydropyrido[2,3-d]pyridazin-3-yl)-5-methyl-2-pyridinecarboxamide]: the results for the IC50 (in assay [1] (setting [4]); at recombinant human p38α) were 38 nM and 14 nM, respectively.
On the same counts, the results for `CNC(=O)c1ccc(C)c(-c2cc3cnnc(-c4ccc(F)cc4F)c3n(C)c2=O)c1` [Example 31, 3-(8-(2,4-difluorophenyl)-1-methyl-2-oxo-1,2-dihydropyrido[2,3-d]pyridazin-3-yl)-N,4-dimethylbenzamide] are 30 nM and 2.7 nM.
The like results for `Cc1ccc(C(=O)Nc2nccs2)cc1-c1cc2cnnc(-c3ccc(F)cc3F)c2n(C)c1=O` [Example 32, 3-(8-(2,4-difluorophenyl)-1-methyl-2-oxo-1,2-dihydropyrido[2,3-d]pyridazin-3-yl)-4-methyl-N-1,3-thiazol-2-ylbenzamide] were, in that order, 7.3 nM and 1.2 nM.
For `Cc1ccc(C(=O)Nc2ccon2)cc1-c1cc2cnnc(-c3ccc(F)cc3F)c2n(C)c1=O` [Example 33, 3-(8-(2,4-difluorophenyl)-1-methyl-2-oxo-1,2-dihydropyrido[2,3-d]pyridazin-3-yl)-N-3-isoxazolyl-4-methylbenzamide], the IC50 in assay [1] (setting [4]) came to 1.7 nM.

For the origin of these results see patent US8455495B2, “Pyridazino-pyridinone compounds and methods of use” (Amgen Inc., priority 2008, dated 2013).
